Entries after “also recorded” stand apart in the source; their conditions may differ.
Tests used:
[1] = tested on: Arabidopsis thaliana seedlings; experiment: Arabidopsis root growth inhibition in growth media; type: in vivo; conditions: for relative toxicity of the D, L and DL forms: Arabidopsis thaliana seedlings
[2] = tested on: lettuce seedlings (Lactuca sativa L.); experiment: Petri-dish bioassay, radicle elongation in lettuce seedlings; type: in vivo; conditions: lettuce seedlings

SMILES | toxicity of the three forms at 40 μM [1] | relative toxicity of the D, L and DL forms [1] | further results
N[C@@H](Cc1ccccc1)C(=O)O [phenylalanine, reference compound] |  |  | root growth restored by addition of phenylalanine ([1]; root growth inhibition initiated by m-tyrosine): 80 % of the control levels
N[C@@H](Cc1ccccc1O)C(=O)O [o-tyrosine, 2′-hydroxyphenylalanine] |  |  | phytotoxicity [2]: no toxicity; also recorded: not phytotoxic; also recorded: devoid of herbicidal activity
N[C@@H](Cc1ccc(O)cc1)C(=O)O [p-tyrosine, tyrosine] |  |  | phytotoxicity [2]: no toxicity; also recorded: not phytotoxic; rescue of root growth inhibition initiated by 3 μM of m-tyrosine ([1]; concentrations up to 1 mM): did not rescue
N[C@H](Cc1cccc(O)c1)C(=O)O [D-m-tyrosine] | same level of toxicity | less toxic at low concentrations | 
O=C(O)C(=O)Cc1cccc(O)c1 [m-hydroxyphenylpyruvic acid] |  |  | toxicity compared with m-tyrosine ([1]; Arabidopsis root growth): as toxic as m-tyrosine; root growth of Arabidopsis when phenylalanine is added to the media ([1]; in vivo): not rescued
NC(Cc1cccc(O)c1)C(=O)O (stereo not drawn) [DL m-tyrosine] | same level of toxicity | roughly equal toxicity | 
N[C@@H](Cc1cccc(O)c1)C(=O)O [L-m-tyrosine, L-3′-hydroxyphenylalanine] | same level of toxicity | roughly equal toxicity | 

Reference: patent US8461085B2, “Bioherbicide from Festuca spp” (Cornell Research Foundation, Inc., priority 2005, dated 2013)
